# Test results taken from US9023985B2, “Glucagon composition” (Arecor Ltd., priority 2010, dated 2015).
# Experiments:
# [1] = Stability of glucagon in surfactant solutions at room temperature (RP-HPLC, gel formation); assay type: physicochemical; settings: for Size of the native glucagon peak (RP-HPLC) / Changes in the native form of glucagon (RP-HPLC): glucagon dissolved with the surfactant, incubation at room temperature for days
# Excerpt: […]. In contrast, the size of the native peak diminished in the case of CHAPS to <10%) and in the case of TWEEN® 20 (to about 60%).
# Formulating at pH>8 minimized the gel formation.
# [2] = Visual assessment of glucagon formulations with and without phenol, 50° C. incubation; assay type: physicochemical; settings: glucagon 1 mg/ml
# Description: The pH of both formulations was adjusted to 5.5. […] The appearance of all formulations was noted shortly after preparation and then following storage at 50° C. for specified periods of time.
# [3] = Visual assessment of glucagon formulations with different tonicity modifiers, 50° C. incubation; settings: glucagon 1 mg/ml, 5 mM acetate, 0.075% benzethonium chloride, pH 5.5
# Description: In some cases, the composition contained a specified concentration of an antioxidant. The effect of the nature and the concentration of the tonicity modifier on the physical stability (i.e., gel formation and/or aggregation) was determined by visual assessment following storage.
# In the first experiment, the effects of mannitol and 1,2-propanediol as tonicity modifiers modifiers were compared at 50° C.
# In another experiment, the effects of mannitol and glycerol as tonicity modifiers were compared at 50° C.
# In another experiment, the effects of mannitol and trehalose as tonicity modifiers were compared at 50° C.
# [4] = 50° C. for up to 6 weeks, 5 mM methionine
# [5] = 0 days, 1.3 mM butylated hydroxytoluene
# [6] = 6 weeks, 1.3 mM butylated hydroxytoluene
# [7] = 6 days, 1.3 mM butylated hydroxytoluene
compound,measurement,setting,value
C[C@H](CCC(=O)NCCC[N+](C)(C)CCCS(=O)(=O)[O-])[C@H]1CC[C@H]2[C@@H]3[C@H](O)C[C@@H]4C[C@H](O)CC[C@]4(C)[C@H]3C[C@H](O)[C@]12C [CHAPS],Size of the native glucagon peak (RP-HPLC),[1],< 10%
Benzalkonium chloride,Changes in the native form of glucagon (RP-HPLC),[1],no significant changes
Sodium deoxycholate,Changes in the native form of glucagon (RP-HPLC),[1],no significant changes
same,Gel formation of dissolved glucagon,"[1]; prepared at pH 7.5, incubation at room temperature",tendency to form gels
Oc1ccccc1 [phenol],Gel formation and/or aggregation on incubation,[2],delay aggregation and gel formation considerably farther
"CC(O)CO (stereo not drawn) [1,2-propanediol]",Onset of aggregation and gel formation compared with mannitol,[3]; 50° C.,much earlier onset of aggregation and gel formation
CC(C)(C)CC(C)(C)c1ccc(OCCOCC[N+](C)(C)Cc2ccccc2)cc1 [Benzethonium chloride],Changes in the native form of glucagon (RP-HPLC),[1],no significant changes
TWEEN ® 20,Size of the native glucagon peak (RP-HPLC),[1],about 60%
"OC[C@H]1O[C@H](O[C@H]2O[C@H](CO)[C@@H](O)[C@H](O)[C@H]2O)[C@H](O)[C@@H](O)[C@@H]1O [trehalose (250 and 500 mM), trehalose]",Visual appearance after incubation,[3]; [4],remained as a clear liquid
"OC[C@@H](O)[C@@H](O)[C@H](O)[C@H](O)CO [Mannitol (250 mM), Mannitol]","Visual assessment (50° C. incubation), extent of visible precipitation",[3]; [5],1
same,"Visual assessment (50° C. incubation), extent of visible precipitation",[3]; [6],1
same,Visual appearance after incubation,[3]; [4],remained as a clear liquid
same,"Visual assessment (50° C. incubation), extent of visible precipitation",[3]; [7],1
"CCCCCCCCCCCCCCCC[N+](C)(C)C.[Br-] [Cetrimide, cetyl trimethylammonium bromide]",Changes in the native form of glucagon (RP-HPLC),[1],no significant changes
"OCC(O)CO [Glycerol (250 mM), Glycerol]","Visual assessment (50° C. incubation), extent of visible precipitation",[3]; [5],1
same,"Visual assessment (50° C. incubation), extent of visible precipitation",[3]; [6],2
same,Visual appearance after incubation,"[3]; 50° C. for 6 weeks, 1.3 mM butylated hydroxytoluene",signs of precipitation
same,"Visual assessment (50° C. incubation), extent of visible precipitation",[3]; [7],1
